Measured values: patent US20250375405A1, “N-LACTOYL-PHENYLALANINE FOR PREVENTING AND/OR TREATING ISCHEMIC HEART DISEASE AND METHOD FOR PREVENTING AND/OR TREATING ISCHEMIC HEART DISEASE” (Harbin Medical University, priority 2024, published 2025)

Columns and labels:
[1] = tested on: mouse model of myocardial ischemia; experiment: Mouse model of myocardial ischemia (left anterior descending coronary artery ligation), echocardiographic cardiac function; type: in vivo, mice; details: mouse MI model, Lac-Phe 20 mg/kg intraperitoneally, 1 week later, compared with the MI group
Experimental: The surgery for left anterior descending coronary artery ligation was performed on mice to establish a mouse model of myocardial ischemia (MI group). […] Mice in the MI group were intraperitoneally injected with Lac-Phe (20 mg/kg), and then anesthetized 1 week later. An M-Mode echocardiogram was obtained under the guidance of B-Mode on a Doppler ultrasound Vevo2100 imaging system for small animals, and 10 or more cardiac cycles were recorded. Instrumental analysis software was used to measure various cardiac indicators of mice to assess the cardiac functions of the mice, including a left ventricular internal dimension systole (LVID), a left ventricular end systolic volume (LVESV), an inter-ventricular septum end-stolic thickness (IVS), an E/A ratio, an ejection fraction (EF), and a fraction shortening (FS).

[2] = tested on: human umbilical vein endothelial cells (HUVECs); experiment: Viability of hypoxic endothelial cells, CCK8 method; type: cell-based; details: Lac-Phe final concentrations 5, 10, 20 and 40 μM added 8 hours before hypoxia for 24 hours
Experimental: The Lac-Phe was added to human umbilical vein endothelial cells (HUVECs), and 8 hours later, the HUVECs were placed in a hypoxia incubator and cultured under hypoxia for 24 hours (N2 95%, CO2 5%). The cell viability was evaluated by Cell Counting Kit-8 (CCK8) method for the normal control group (CTRL), hypoxia group (Hypoxia), and Lac-Phe-treated hypoxia group.

[3] = tested on: HUVECs; experiment: Apoptosis of hypoxic endothelial cells by flow cytometry; type: cell-based, human; details: Lac-Phe final concentration 20 μM, added 8 hours before hypoxia for 24 hours
Experimental: The Lac-Phe was added to HUVECs, and 8 hours later, the HUVECs were placed in a hypoxia incubator and cultured under hypoxia for 24 hours (N2 95%, CO2 5%). The cell apoptosis was determined by flow cytometry for the normal control group (CTRL), hypoxia group (Hypoxia), and Lac-Phe-treated hypoxia group.

[4] = tested on: HUVECs; experiment: Endothelial cell migration, wound closure assay; type: cell-based, human; details: Lac-Phe final concentration 10 μM, 12, 24 and 36 hours, versus control with 0.1% DMSO
Experimental: HUVECs were divided into 2 groups: a control group (CTRL, including 0.1% of dimethylsulfoxide (DMSO)), and a Lac-Phe-treated group (final concentration: 10 μM). Cell monolayers were wounded in wells of a cell culture plate along the central axis of each well by an autoclaved white pipette tip, suspended cells in each well were washed with phosphate buffered saline (PBS), and a medium without fetal bovine serum was added to each well. The wounds were photographed with an inverted microscope, that is, the wound area was recorded at 0 hour. The cells were then further incubated in a cell culture incubator at 37° C. for 12 hours, 24 hours, and 36 hours. Then, the wounds were photographed under the inverted microscope, that is, the wound area was recorded. The ImageJ software was used to quantitatively assess the wound closure (FIG. 4A-FIG. 4B).

[5] = tested on: HUVECs; experiment: Endothelial cell tube formation assay; type: cell-based, human; details: Lac-Phe final concentration 20 μM, 24 hours after administration
Experimental: HUVECs were divided into 2 groups: a control group (CTRL, including 0.1% of DMSO), and a Lac-Phe-treated group (final concentration: 20 μM). 24 hours after administration, the endothelial cell tube formation assay was performed.
It can be seen from the experimental results that Lac-Phe can increase the length of branches and the number of branch points formed from HUVECs (FIG. 5A-FIG. 5C). The above results also indicate that Lac-Phe has the potential to promote angiogenesis.

[6] = tested on: Primary mouse cardiomyocytes; experiment: Viability of hypoxic cardiomyocytes, CCK8 method; type: cell-based; details: Lac-Phe final concentrations 10 μM and 20 μM, hypoxia treatment for 24 hours
Experimental: Primary mouse cardiomyocytes were divided into the following 4 groups: a control group (CTRL, including 0.1% of DMSO), a hypoxia group (a hypoxia treatment was performed for 24 hours), and hypoxia+Lac-Phe groups (cardiomyocytes were treated with Lac-Phe at final concentrations of 10 μM and 20 μM, respectively, and a hypoxia treatment was performed for 24 hours). The viability of cardiomyocytes was assayed by the CCK8 method.
It can be seen from the experimental results that Lac-Phe has the function of protecting cardiomyocytes against hypoxic injury.

[7] = tested on: Macrophages (RAW264.7); experiment: LPS-induced pro-inflammatory cytokine expression in macrophages, qRT-PCR; type: cell-based; details: LPS 100 ng/ml, Lac-Phe final concentration 20 μM, 24 hours
Experimental: Macrophages (RAW264.7) were divided into the following 3 groups: a control group (CTRL, including 0.1% of DMSO), a lipopolysaccharide (LPS)-treated group (LPS-induced inflammatory responses in macrophages, a concentration: 100 ng/ml), and an LPS+Lac-Phe-treated group (Lac-Phe was added to LPS-induced macrophages at a final concentration of 20 μM). 24 hours after administration, RNA was extracted from cells in each group, and expression levels of pro-inflammatory cytokines IL-6 and TNFα in cells in each group were determined by quantitative real-time polymerase chain reaction (qRT-PCR). […] The above results also indicate that Lac-Phe has the anti-inflammatory potential.

[8] = tested on: experimental mice; details: supplementation of Lac-Phe, earlier studies; cited from earlier work

Compound: C[C@H](O)C(=O)N[C@@H](Cc1ccccc1)C(=O)O [Lac-Phe, N-lactoyl-phenylalanine]
- cardiac function (LVID, LVESV, IVS, E/A ratio, EF, FS) by echocardiogram [1]: significant improvement effect on the cardiac function
- cell viability of hypoxic HUVECs [2]: significantly improved
- number of apoptotic HUVECs [3]: significantly reduced
- migration of endothelial cells (wound closure) [4]: promoting the migration of endothelial cells
- length of branches formed from HUVECs [5]: increase
- number of branch points formed from HUVECs [5]: increase
- viability of hypoxic cardiomyocytes [6]: significantly alleviate the hypoxic injury of cardiomyocytes
- expression level of pro-inflammatory cytokine IL-6 [7]: significantly decreased
- expression level of pro-inflammatory cytokine TNFα [7]: significantly decreased
- food intake of experimental mice [8]: effectively reduce the food intake
